Test results taken from article PMC7766161, “PARP Theranostic Auger Emitters Are Cytotoxic in BRCA Mutant Ovarian Cancer and Viable Tumors from Ovarian Cancer Patients Enable Ex-Vivo Screening of Tumor Response” (Molecules, 2020).

Target: T1, PARP-1 (Homo sapiens, UniProt P09874)
T1 construct: gene PARP1
Assay: saturation radioligand binding in OVCAR8 wt cells (nonspecific binding with […] veliparib)
Assay type: cell-based

T1 sequence (P09874 2-1014): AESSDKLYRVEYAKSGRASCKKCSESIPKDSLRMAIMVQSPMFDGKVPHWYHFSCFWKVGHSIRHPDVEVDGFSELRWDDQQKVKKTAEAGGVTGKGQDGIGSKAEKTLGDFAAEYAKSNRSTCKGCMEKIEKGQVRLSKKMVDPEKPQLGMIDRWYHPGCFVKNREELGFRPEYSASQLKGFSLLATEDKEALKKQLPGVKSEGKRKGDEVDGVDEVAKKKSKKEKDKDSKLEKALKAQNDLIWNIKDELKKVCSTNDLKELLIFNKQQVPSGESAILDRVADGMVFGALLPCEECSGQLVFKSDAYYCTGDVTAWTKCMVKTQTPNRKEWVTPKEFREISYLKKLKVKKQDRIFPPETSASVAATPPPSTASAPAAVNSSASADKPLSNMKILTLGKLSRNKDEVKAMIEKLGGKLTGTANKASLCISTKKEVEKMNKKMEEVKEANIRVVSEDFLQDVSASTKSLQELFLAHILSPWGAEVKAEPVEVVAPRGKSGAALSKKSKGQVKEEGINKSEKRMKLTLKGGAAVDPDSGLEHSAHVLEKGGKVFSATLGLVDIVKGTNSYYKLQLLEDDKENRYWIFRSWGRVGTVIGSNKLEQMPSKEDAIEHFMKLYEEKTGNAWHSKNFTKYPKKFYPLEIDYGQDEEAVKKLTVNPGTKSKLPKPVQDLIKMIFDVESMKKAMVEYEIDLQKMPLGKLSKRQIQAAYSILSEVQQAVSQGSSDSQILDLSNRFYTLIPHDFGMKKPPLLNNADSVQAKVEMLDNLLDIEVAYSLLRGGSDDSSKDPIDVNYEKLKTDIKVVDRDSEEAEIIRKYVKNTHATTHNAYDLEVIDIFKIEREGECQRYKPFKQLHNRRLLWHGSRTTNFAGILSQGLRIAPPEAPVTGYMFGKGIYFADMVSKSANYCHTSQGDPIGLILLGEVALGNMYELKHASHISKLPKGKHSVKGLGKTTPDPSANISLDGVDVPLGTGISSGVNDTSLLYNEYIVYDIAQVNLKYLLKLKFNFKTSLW

A Kd of 7.7 nM was found for [125I]KX1 in this work.
